# Experimental data as given in patent US20190083498A1, “THERAPIES FOR HEMATOLOGIC MALIGNANCIES” (GILEAD CALISTOGA LLC, priority 2008, published 2019).
# Key:
# LB cells [1] = assay: MM cell growth with IGF-1 or IL-6, MTT; assay type: cell-based, human; conditions: 0.625 μM-[…], IL-6 or IGF-1, 48 h
# Method: LB cells (Myelomonocytic myeloma cell line) were cultured for 48 h with control media; with the compound of formula I, in the presence or absence of either IL-6 or IGF-1. […] Cells were pulsed with 10 μL of 5 mg/mL MTT to each well for the last 4 hours of 48-hour cultures, followed by 100 μL isopropanol containing 0.04 N HCl. Absorbance was measured at 570/630 nm using a spectrophotometer (Molecular Devices).
# LB cells [2] = assay: LB cell proliferation with or without BMSCs, [3H]-thymidine uptake; assay type: cell-based, human; conditions: 0.625 μM-10 μM, 48 hours
# Method: LB cells were cultured with control media, and with the compound of formula I for 48 hours, in the presence or absence of BMSCs. Cell proliferation was assessed using [^3H]-thymidine uptake assay. All data represent mean (±SD) of triplicate experiment.
# CCRF-SB cells = assay: Cell cycle FACS analysis, propidium iodide; assay type: cell-based; conditions: CCRF-SB ALL cell line
# Method: Representative fluorescence-activated cell sorting (FACS) analysis of propidium iodide-stained CCRF-SB cells under normal growth conditions, and growth in the presence of the compound of formula I. The average percentage of cells in G0-G1, S, and G2-M phases is calculated in the table below the histographs.
# [3] = human, in vivo
# Method: This example provides data relating to the concentration of the compound of formula I in the blood of a healthy human subject on day 7. The concentration was monitored over a period of 12 hours, after oral administration of 50, 100, or 200 mg BID of the compound of formula I on day 7 of the study. FIG. 11 follows the plasma concentration of the drug over a period of 12 hours from administration.
# In addition, single dose studies wherein 17-400 mg of the compound of formula I was administered in healthy volunteers was carried out.
# Table 1, below, provides an overview of the subjects in the study, wherein either a singe dose (SD) or multiple dose (MD) of the compound of formula I is administered to a subject at varying amounts. The “n” values refer to the number of subjects in each group.
# patient MM cells = assay: Viability of patient MM cells, MTT; assay type: cell-based, human; conditions: 48 h
# Description: Patient MM and BM cells were obtained from BM samples after informed consent was obtained per the Declaration of Helsinki and approval by the Institutional Review Board of the Dana-Farber Cancer Institute (Boston, Mass.). BM mononuclear cells were separated using Ficoll-Paque™ density sedimentation, and plasma cells were purified (>95% CD138+) by positive selection with anti-CD138 magnetic activated cell separation micro beads (Miltenyi Biotec, Auburn, Calif.). Tumor cells were also purified from the BM of MM patients using the RosetteSep negative selection system (StemCell Technologies, Vancouver, BC, Canada).
# Data represent mean ±SD viability, assessed by MTT assay of triplicate cultures, expressed as percentage of untreated controls.
# [4] = system: LB and INA-6 MM cells with BMSCs; assay: Paracrine MM cell growth, cytokine secretion and signaling with BMSCs; assay type: cell-based, human; conditions: 48 h
# Method: MM cells (2×10^4 cells/well) were cultured for 48 h in BMSC coated 96-well plates (Costar, Cambridge, Mass.), in the presence or absence of drug. DNA synthesis was measured by [3H]-thymidine (Perkin-Elmer, Boston, Mass.) uptake, with [3H]-thymidine (0.5μ Ci/well) added during the last 8 h of 48 h cultures. All experiments were performed in quadruplicate.
# Cytokine secretion by human BMSCs cocultured with MM cells was assessed by ELISA. […] After 48 h, supernatants were harvested and stored at −80° C. Cytokines were measured using Duo set ELISA Development Kits (R&D Systems, Minneapolis, Minn.). All measurements were carried out in triplicate.
# The cytokine levels in culture supernatants were assessed using Proteome Profiler Antibody Arrays Panel A (R&D Systems, Minneapolis, Minn.), Supernatants from co-cultures with BMSCs were incubated for 4 hours with membranes arrayed with Abs against 37 cytokines, according to manufacturer's instructions.
# DNA synthesis was determined by [3H]-thymidine incorporation. Data represent means (±SD) of triplicate cultures.
# Error bars indicate SD (±).
# INA-6 cells cultured with or without BMSCs were treated with compound for 48 h. Total cell lysates were subjected to immunoblotting using indicated antibodies, FIG. 34F. Actin was used as a loading control.
# HuVECs = assay: HuVEC viability, MTT; assay type: cell-based, human; conditions: 0-20 μM, 48 h
# Description: Data shown are mean ±SE of triplicate wells from a representative experiment.
# [5] = system: phospho-AKT (ser473) in INA-6 cells; assay: Bortezomib-induced AKT phosphorylation, western blotting; assay type: cell-based, human; conditions: compound I 5 μM, bortezomib 5 nM; 6 h
# Method: Phosphorylation of AKT was determined by western blotting of cell lysates using phospho-AKT (ser473) antibody, FIG. 37B. Actin served as a loading control.
smiles,measurement,setting,value
"CC[C@H](Nc1ncnc2[nH]cnc12)c1nc2cccc(F)c2c(=O)n1-c1ccccc1 [Compound I, 5-fluoro-3-phenyl-2-[1-(9H-purin-6-ylamino)-propyl]-3H-quinazolin-4-one]",MM cell growth in the presence of cell growth stimulatory cytokines,LB cells [1],inhibits MM cell growth
same,LB cell growth in the presence of BMSC,LB cells [2],reduced
same,cell cycle effect,CCRF-SB cells,G0/G1 cell cycle arrest
same,tolerability in normal healthy volunteers,[3],well tolerated
same,time the concentration exceeds the PI3Kδ EC50 concentration in basophil,[3]; 7 day,at least 12 hours
same,cytotoxicity against patient MM cells,patient MM cells,induced cytotoxicity
same,MM cell growth induced by BMSCs,"[4]; 2.5, 5, 10 μM",inhibited
same,cytokine secretion induced by BMSCs,"[4]; ELISA, cytokine arrays",inhibited
same,phosphorylation of AKT and ERK induced by BMSCs,[4]; INA-6 with BMSCs,inhibited
same,cytotoxicity in HuVECs,HuVECs,without associated cytotoxicity
same,induction of phospho-Akt by bortezomib treatment,[5],inhibited
